Sander's compilation of Henry's law constants (doi:10.1021/ac0604742)

Assay: Henry solubility constant Hcp at 298.15 K (mol/(m3 Pa))
Conditions: reference: Fang et al. (2006)
In the case of `Clc1ccc(-c2cc(Cl)c(Cl)c(Cl)c2Cl)cc1Cl` [2,3,3',4,4',5-hexachlorobiphenyl], the “Henry solubility constant Hcp” value is reported as 0.068.
With `Clc1ccc(-c2cc(Cl)c(Cl)c(Cl)c2)cc1` [3,4,4',5-tetrachlorobiphenyl] the “Henry solubility constant Hcp” value was 0.088.
With `Clc1cc(-c2ccc(Cl)c(Cl)c2Cl)cc(Cl)c1Cl` [2,3,3',4,4',5'-hexachlorobiphenyl] the “Henry solubility constant Hcp” value was 0.06.
In the case of `Clc1cc(-c2cc(Cl)c(Cl)c(Cl)c2)cc(Cl)c1Cl` [3,3',4,4',5,5'-hexachlorobiphenyl], the “Henry solubility constant Hcp” value is reported as 0.081.
For `Clc1ccc(-c2ccc(Cl)c(Cl)c2)cc1Cl` [3,3',4,4'-tetrachlorobiphenyl], the “Henry solubility constant Hcp” value was 0.091.
With `Clc1cc(-c2cc(Cl)c(Cl)c(Cl)c2Cl)cc(Cl)c1Cl` [2,3,3',4,4',5,5'-heptachlorobiphenyl] the “Henry solubility constant Hcp” value was 0.084.
In the case of `Clc1ccc(-c2cc(Cl)c(Cl)c(Cl)c2)c(Cl)c1` [2,3',4,4',5'-pentachlorobiphenyl], the “Henry solubility constant Hcp” value is reported as 0.046.
With `Clc1ccc(-c2cc(Cl)c(Cl)cc2Cl)cc1Cl` [2,3',4,4',5-pentachlorobiphenyl] the “Henry solubility constant Hcp” value was 0.057.
For `Clc1cc(Cl)c(-c2cc(Cl)c(Cl)c(Cl)c2)cc1Cl` [2,3',4,4',5,5'-hexachlorobiphenyl], the “Henry solubility constant Hcp” value was 0.078.
For `Clc1ccc(-c2cc(Cl)c(Cl)c(Cl)c2)cc1Cl` [3,3',4,4',5-pentachlorobiphenyl], the “Henry solubility constant Hcp” value was 0.1.
In the case of `Clc1ccc(-c2ccc(Cl)c(Cl)c2Cl)cc1Cl` [2,3,3',4,4'-pentachlorobiphenyl], the “Henry solubility constant Hcp” value is reported as 0.18.
